# Reference: patent publication US20260078103A1, “ISOQUINOLONES AS PI3K INHIBITORS” (OnKure, Inc., priority 2022, published 2026)
# Test system: T47D cells expressing mutant PI3Ka (H1047R)
# Assay: In vitro cell proliferation, T47D cells (CellTiter-Glo)
# Assay type: cell-based
# Conditions: inhibition of proliferation, 72 hours, read-out: Avg T-47D EC50
# Outline: (§1)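 T47D (PI3Kα H1047R; RPMI, 10% FBS, insulin 0.2 units/mL) or SKBR3 (WT PI3Kα; McCoys 5a, 10% FBS) cells seeded at 1,500 cells/well on 10-point compound dilutions, grown 72 h at 37 °C. CellTiter-Glo luminescence; inhibition normalised to 0.1% DMSO and 10 uM alpelisib, EC50 from four-parameter fit.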
row,SMILES,EC50 [nM]
1,"Cc1cc([C@@H](C)Nc2ccccc2C(=O)O)c2cc([C@H]3C[C@@H]3C(C)(C)O)n(C)c(=O)c2c1 (single isomer, unassigned) [Example 374]",1 to 500
2,"Cc1cc([C@@H](C)Nc2ccccc2C(=O)O)c2cc(C3CC3(F)F)n(C)c(=O)c2c1 (single isomer, unassigned) [Example 385]",1 to 500
3,"Cc1cc([C@@H](C)Nc2cccc(F)c2C(=O)O)c2cc(C3CC3(F)F)n(C)c(=O)c2c1 (single isomer, unassigned) [Example 420]",2000 to 15000
4,"Cc1cc([C@@H](C)Nc2cccc(F)c2C(=O)O)c2cc(C3CC3(F)F)n(C)c(=O)c2c1 (single isomer, unassigned) [Example 421]",500 to 2000
5,"C[C@@H](Nc1cccc(F)c1C(=O)O)c1cc(F)cc2c(=O)n(C)c(C3C[C@@H]3C3CC3)cc12 (single isomer, unassigned) [Example 425]",500 to 2000
6,"C[C@@H](Nc1cccc(F)c1C(=O)O)c1cc(F)cc2c(=O)n(C)c(C3C[C@@H]3C3CC3)cc12 (single isomer, unassigned) [Example 426]",1 to 500
7,"C[C@@H](Nc1cccc(F)c1C(=O)O)c1cc(F)cc2c(=O)n(C)c(C3C[C@@H]3C(F)(F)F)cc12 (single isomer, unassigned) [Example 428]",500 to 2000
8,"C[C@@H](Nc1ccccc1C(=O)O)c1cc(F)cc2c(=O)n(C)c(C3C[C@@H]3C3CC3)cc12 (single isomer, unassigned) [Example 450]",1 to 500
9,"C[C@@H](Nc1ccccc1C(=O)O)c1cc(F)cc2c(=O)n(C)c(C3C[C@@H]3C(F)(F)F)cc12 (single isomer, unassigned) [Example 452]",1 to 500
10,"C[C@@H](Nc1cccc(F)c1C(=O)O)c1cc(F)cc2c(=O)n(C)c(C3C[C@@H]3C(F)F)cc12 (single isomer, unassigned) [Example 476]",500 to 2000
11,"C[C@@H](Nc1cccc(F)c1C(=O)O)c1cc(F)cc2c(=O)n(C)c(C3CC3(F)F)cc12 (single isomer, unassigned) [Example 479]",2000 to 15000
12,"C[C@@H](Nc1cccc(F)c1C(=O)O)c1cc(F)cc2c(=O)n(C)c(C3CC3(F)F)cc12 (single isomer, unassigned) [Example 480]",500 to 2000
13,"C[C@@H](Nc1ccccc1C(=O)O)c1cc(F)cc2c(=O)n(C)c(C3CC3(F)F)cc12 (single isomer, unassigned) [Example 481]",500 to 2000
14,"C[C@@H](Nc1ccccc1C(=O)O)c1cc(F)cc2c(=O)n(C)c(C3CC3(F)F)cc12 (single isomer, unassigned) [Example 482]",1 to 500

# Test system: SKBR3 cells express WT PI3Ka
# Assay: In vitro cell proliferation, SKBR3 cells (CellTiter-Glo)
# Assay type: cell-based
# Conditions: Homo sapiens, SK-BR-3, 72 h, inhibition of proliferation
# Outline: as §1
row,SMILES,EC50 [nM]
1,"Cc1cc([C@@H](C)Nc2cccc(F)c2C(=O)O)c2cc(C3CC3(F)F)n(C)c(=O)c2c1 (single isomer, unassigned) [Example 420]",> 15000
2,"C[C@@H](Nc1cccc(F)c1C(=O)O)c1cc(F)cc2c(=O)n(C)c(C3C[C@@H]3C3CC3)cc12 (single isomer, unassigned) [Example 425]",> 15000
3,"C[C@@H](Nc1cccc(F)c1C(=O)O)c1cc(F)cc2c(=O)n(C)c(C3CC3(F)F)cc12 (single isomer, unassigned) [Example 479]",> 15000
4,"C[C@@H](Nc1ccccc1C(=O)O)c1cc(F)cc2c(=O)n(C)c(C3CC3(F)F)cc12 (single isomer, unassigned) [Example 481]",> 15000

# Same assay, conditions: inhibition of proliferation, 72 hours
row,SMILES,EC50 [nM]
1,"Cc1cc([C@@H](C)Nc2ccccc2C(=O)O)c2cc([C@H]3C[C@@H]3C(C)(C)O)n(C)c(=O)c2c1 (single isomer, unassigned) [Example 374]",> 15000
2,"Cc1cc([C@@H](C)Nc2ccccc2C(=O)O)c2cc(C3CC3(F)F)n(C)c(=O)c2c1 (single isomer, unassigned) [Example 385]",> 15000
3,"Cc1cc([C@@H](C)Nc2cccc(F)c2C(=O)O)c2cc(C3CC3(F)F)n(C)c(=O)c2c1 (single isomer, unassigned) [Example 421]",> 15000
4,"C[C@@H](Nc1cccc(F)c1C(=O)O)c1cc(F)cc2c(=O)n(C)c(C3C[C@@H]3C3CC3)cc12 (single isomer, unassigned) [Example 426]",> 15000
5,"C[C@@H](Nc1cccc(F)c1C(=O)O)c1cc(F)cc2c(=O)n(C)c(C3C[C@@H]3C(F)(F)F)cc12 (single isomer, unassigned) [Example 428]",> 15000
6,"C[C@@H](Nc1ccccc1C(=O)O)c1cc(F)cc2c(=O)n(C)c(C3C[C@@H]3C3CC3)cc12 (single isomer, unassigned) [Example 450]",> 15000
7,"C[C@@H](Nc1ccccc1C(=O)O)c1cc(F)cc2c(=O)n(C)c(C3C[C@@H]3C(F)(F)F)cc12 (single isomer, unassigned) [Example 452]",> 15000
8,"C[C@@H](Nc1cccc(F)c1C(=O)O)c1cc(F)cc2c(=O)n(C)c(C3C[C@@H]3C(F)F)cc12 (single isomer, unassigned) [Example 476]",> 15000
9,"C[C@@H](Nc1cccc(F)c1C(=O)O)c1cc(F)cc2c(=O)n(C)c(C3CC3(F)F)cc12 (single isomer, unassigned) [Example 480]",> 15000
10,"C[C@@H](Nc1ccccc1C(=O)O)c1cc(F)cc2c(=O)n(C)c(C3CC3(F)F)cc12 (single isomer, unassigned) [Example 482]",> 15000

# Test system: phosphorylation of AKT (pAKT) in T47D cells expressing mutant PI3Ka (H1047R)
# Assay: In vitro cell pAKT (Ser473) HTRF, T47D cells
# Assay type: cell-based
# Conditions: Homo sapiens, T47D, 6 h, cellular pAKT, T47D cells, mutant PI3Ka (H1047R), 6 hours; read-out: Avg T-47D IC50
# Outline: (§2)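 T47D cells (RPMI, 10% FBS, 0.2 units/mL insulin) or SKBR3 cells (McCoy's 5a, 10% FBS) were seeded onto 10-point compound dilutions and incubated 6 h at 37 °C. After lysis, pAKT was detected overnight by HTRF (Eu cryptate/d2). IC50 was fitted from % inhibition relative to 0.1% DMSO and 10 uM alpelisib controls.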
row,SMILES,IC50 [nM]
1,"C[C@@H](Nc1cccc(F)c1C(=O)O)c1cc(F)cc2c(=O)n(C)c(C3C[C@@H]3C3CC3)cc12 (single isomer, unassigned) [Example 425]",1 to 500

# Same assay, conditions: cellular pAKT, T47D cells, mutant PI3Ka (H1047R), 6 hours; read-out: Avg T-47D IC50
row,SMILES,IC50 [nM]
1,"Cc1cc([C@@H](C)Nc2ccccc2C(=O)O)c2cc([C@H]3C[C@@H]3C(C)(C)O)n(C)c(=O)c2c1 (single isomer, unassigned) [Example 374]",1 to 500
2,"Cc1cc([C@@H](C)Nc2ccccc2C(=O)O)c2cc(C3CC3(F)F)n(C)c(=O)c2c1 (single isomer, unassigned) [Example 385]",1 to 500
3,"Cc1cc([C@@H](C)Nc2cccc(F)c2C(=O)O)c2cc(C3CC3(F)F)n(C)c(=O)c2c1 (single isomer, unassigned) [Example 420]",2000 to 15000
4,"Cc1cc([C@@H](C)Nc2cccc(F)c2C(=O)O)c2cc(C3CC3(F)F)n(C)c(=O)c2c1 (single isomer, unassigned) [Example 421]",1 to 500
5,"C[C@@H](Nc1cccc(F)c1C(=O)O)c1cc(F)cc2c(=O)n(C)c(C3C[C@@H]3C3CC3)cc12 (single isomer, unassigned) [Example 426]",1 to 500
6,"C[C@@H](Nc1cccc(F)c1C(=O)O)c1cc(F)cc2c(=O)n(C)c(C3C[C@@H]3C(F)(F)F)cc12 (single isomer, unassigned) [Example 428]",1 to 500
7,"C[C@@H](Nc1ccccc1C(=O)O)c1cc(F)cc2c(=O)n(C)c(C3C[C@@H]3C3CC3)cc12 (single isomer, unassigned) [Example 450]",1 to 500
8,"C[C@@H](Nc1ccccc1C(=O)O)c1cc(F)cc2c(=O)n(C)c(C3C[C@@H]3C(F)(F)F)cc12 (single isomer, unassigned) [Example 452]",1 to 500
9,"C[C@@H](Nc1cccc(F)c1C(=O)O)c1cc(F)cc2c(=O)n(C)c(C3C[C@@H]3C(F)F)cc12 (single isomer, unassigned) [Example 476]",1 to 500
10,"C[C@@H](Nc1cccc(F)c1C(=O)O)c1cc(F)cc2c(=O)n(C)c(C3CC3(F)F)cc12 (single isomer, unassigned) [Example 479]",2000 to 15000
11,"C[C@@H](Nc1cccc(F)c1C(=O)O)c1cc(F)cc2c(=O)n(C)c(C3CC3(F)F)cc12 (single isomer, unassigned) [Example 480]",1 to 500
12,"C[C@@H](Nc1ccccc1C(=O)O)c1cc(F)cc2c(=O)n(C)c(C3CC3(F)F)cc12 (single isomer, unassigned) [Example 481]",500 to 2000
13,"C[C@@H](Nc1ccccc1C(=O)O)c1cc(F)cc2c(=O)n(C)c(C3CC3(F)F)cc12 (single isomer, unassigned) [Example 482]",1 to 500

# Test system: phosphorylation of AKT (pAKT) in SKBR3 cells express WT PI3Ka
# Assay: In vitro cell pAKT (Ser473) HTRF, SKBR3 cells
# Assay type: cell-based
# Conditions: Homo sapiens, SK-BR-3, 6 h, cellular pAKT
# Outline: as §2
row,SMILES,IC50 [nM]
1,"Cc1cc([C@@H](C)Nc2cccc(F)c2C(=O)O)c2cc(C3CC3(F)F)n(C)c(=O)c2c1 (single isomer, unassigned) [Example 420]",> 15000
2,"C[C@@H](Nc1cccc(F)c1C(=O)O)c1cc(F)cc2c(=O)n(C)c(C3C[C@@H]3C3CC3)cc12 (single isomer, unassigned) [Example 425]",> 15000
3,"C[C@@H](Nc1cccc(F)c1C(=O)O)c1cc(F)cc2c(=O)n(C)c(C3CC3(F)F)cc12 (single isomer, unassigned) [Example 479]",> 15000
4,"C[C@@H](Nc1ccccc1C(=O)O)c1cc(F)cc2c(=O)n(C)c(C3CC3(F)F)cc12 (single isomer, unassigned) [Example 481]",> 15000

# Same assay, conditions: cellular pAKT, 6 hours
row,SMILES,IC50 [nM]
1,"Cc1cc([C@@H](C)Nc2ccccc2C(=O)O)c2cc([C@H]3C[C@@H]3C(C)(C)O)n(C)c(=O)c2c1 (single isomer, unassigned) [Example 374]",> 15000
2,"Cc1cc([C@@H](C)Nc2ccccc2C(=O)O)c2cc(C3CC3(F)F)n(C)c(=O)c2c1 (single isomer, unassigned) [Example 385]",> 15000
3,"Cc1cc([C@@H](C)Nc2cccc(F)c2C(=O)O)c2cc(C3CC3(F)F)n(C)c(=O)c2c1 (single isomer, unassigned) [Example 421]",> 15000
4,"C[C@@H](Nc1cccc(F)c1C(=O)O)c1cc(F)cc2c(=O)n(C)c(C3C[C@@H]3C3CC3)cc12 (single isomer, unassigned) [Example 426]",> 15000
5,"C[C@@H](Nc1cccc(F)c1C(=O)O)c1cc(F)cc2c(=O)n(C)c(C3C[C@@H]3C(F)(F)F)cc12 (single isomer, unassigned) [Example 428]",> 15000
6,"C[C@@H](Nc1ccccc1C(=O)O)c1cc(F)cc2c(=O)n(C)c(C3C[C@@H]3C3CC3)cc12 (single isomer, unassigned) [Example 450]",> 15000
7,"C[C@@H](Nc1ccccc1C(=O)O)c1cc(F)cc2c(=O)n(C)c(C3C[C@@H]3C(F)(F)F)cc12 (single isomer, unassigned) [Example 452]",> 15000
8,"C[C@@H](Nc1cccc(F)c1C(=O)O)c1cc(F)cc2c(=O)n(C)c(C3C[C@@H]3C(F)F)cc12 (single isomer, unassigned) [Example 476]",> 15000
9,"C[C@@H](Nc1cccc(F)c1C(=O)O)c1cc(F)cc2c(=O)n(C)c(C3CC3(F)F)cc12 (single isomer, unassigned) [Example 480]",> 15000
10,"C[C@@H](Nc1ccccc1C(=O)O)c1cc(F)cc2c(=O)n(C)c(C3CC3(F)F)cc12 (single isomer, unassigned) [Example 482]",> 15000
